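Five compound concentrations were applied to cells in 96-well plates for 48 hours; endpoints were derived by simple linear interpolation of the resulting dose-response curve. The concentration for 50% growth inhibition is given as GI50.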 Activity calls are given as the source filed them. No stated cut-off is given here; in the data, active = GI50 up to about 1.1 µM and inactive = higher.
What was measured:
Experiment in all cases: DTP human tumour cell line panel, 48 h
[1] = test system: BT-549
[2] = test system: MDA-N
[3] = test system: HCC 2998
[4] = test system: OVCAR-5
[5] = test system: K562
[6] = test system: MOLT-4
[7] = test system: SR
[8] = test system: Malme-3M
[9] = test system: NCI/ADR-RES
[10] = test system: LOX IMVI
[11] = test system: IGROV-1
[12] = test system: ACHN
[13] = test system: HL-60
[14] = test system: CCRF-CEM
[15] = test system: SF-295
[16] = test system: OVCAR-4
[17] = test system: HOP-92
[18] = test system: COLO 205
[19] = test system: NCI-H23
[20] = test system: Hs-578T

Measured: GI50

CCN(CC)CCCn1c(=O)c2ccccc2n2c3c(=O)n(C)c(=O)n(C)c3nc12
active: [6] 0.619 µM | [7] 0.394 µM
inactive: [1] 2.47 µM | [2] 14.2 µM | [3] 8.95 µM | [4] 12.1 µM | [5] 6.79 µM | [8] 8.99 µM | [9] 13.2 µM | [10] 3.03 µM | [11] 6.58 µM | [12] 1.34 µM | [13] 1.58 µM | [14] 3.03 µM | [15] 3.43 µM | [16] 6.95 µM | [17] 3.9 µM | [18] 5.09 µM | [19] 4.67 µM | [20] 14 µM

O=C1C2CC=CCC2C(=O)N1n1c(-c2ccccc2)n[nH]c1=O (configuration not stated)
inactive: [1] > 100 µM | [2] > 100 µM | [3] > 100 µM | [4] > 100 µM | [5] > 100 µM | [6] > 100 µM | [7] > 100 µM | [8] > 100 µM | [9] > 100 µM | [10] > 100 µM | [11] > 100 µM | [12] > 100 µM | [14] > 100 µM | [15] > 100 µM | [16] > 100 µM | [17] > 100 µM | [18] > 100 µM | [19] > 100 µM | [20] > 100 µM

O=[N+]([O-])c1ccc(N2CCC(CCCC3CCN(c4ccc([N+](=O)[O-])cc4[N+](=O)[O-])CC3)CC2)c([N+](=O)[O-])c1
inactive: [1] 24.4 µM | [2] 16.1 µM | [4] 16.4 µM | [5] 22.3 µM | [6] 23.3 µM | [7] 27 µM | [8] 19.1 µM | [9] 20.7 µM | [10] 14.8 µM | [11] 11.1 µM | [12] 16.1 µM | [13] 15.4 µM | [14] 13.7 µM | [15] 17.4 µM | [16] 12.9 µM | [17] 11 µM | [18] 14.2 µM | [19] 21.2 µM | [20] 34.8 µM

CCOC(=O)/C=C(/C(=O)OCC)n1ccc(=O)n(Cc2cn(CCCCOC(C)=O)nn2)c1=O
inactive: [1] > 100 µM | [2] > 100 µM | [3] > 100 µM | [4] > 100 µM | [5] 55 µM | [6] 50.2 µM | [7] > 100 µM | [9] > 100 µM | [10] > 100 µM | [11] > 100 µM | [12] 40.3 µM | [14] 16.2 µM | [15] > 100 µM | [16] > 100 µM | [17] 6.65 µM | [18] 31.8 µM | [19] > 100 µM | [20] > 100 µM

CC(CO)(CO)N1C(=O)C2C3c4ccccc4C(c4ccccc43)C2C1=O (configuration not stated)
inactive: [1] 80.9 µM | [2] > 100 µM | [3] > 100 µM | [4] > 100 µM | [5] > 100 µM | [6] > 100 µM | [7] > 100 µM | [8] > 100 µM | [9] > 100 µM | [11] > 100 µM | [12] > 100 µM | [13] > 100 µM | [14] > 100 µM | [15] > 100 µM | [18] > 100 µM | [19] > 100 µM | [20] > 100 µM

OCCN=C1c2ccccc2C2C(c3ccccc31)C1c3ccccc3C(=NCCO)c3ccccc3C21 (configuration not stated)
inactive: [1] 23.6 µM | [2] 15.6 µM | [3] 22.6 µM | [4] 19.6 µM | [5] 12.6 µM | [6] 8.91 µM | [7] 9.48 µM | [8] 32.4 µM | [9] 22.2 µM | [10] 22 µM | [11] 15.5 µM | [12] 23.6 µM | [13] 13.9 µM | [14] 11.6 µM | [15] 12.9 µM | [16] 18.8 µM | [18] 15.6 µM | [19] 44.7 µM | [20] 12.6 µM

N#CC(C#N)=C1SC(=N\c2ccccc2)/C(=N/c2ccccc2)N1c1ccccc1
inactive: [1] 8.24 µM | [2] 12.4 µM | [3] 15.2 µM | [4] 20.7 µM | [5] 2.3 µM | [6] 2.24 µM | [7] 3.03 µM | [8] 22.2 µM | [9] 26.4 µM | [10] 10.7 µM | [11] 13.9 µM | [12] 20 µM | [14] 2.09 µM | [15] 25.2 µM | [16] 13.2 µM | [17] 6.82 µM | [18] 10.1 µM | [19] 29.6 µM | [20] 25.3 µM

CCOC(=O)NC(Nc1cccc(F)c1)(C(F)(F)F)C(F)(F)F
inactive: [1] > 100 µM | [2] > 100 µM | [3] > 100 µM | [4] > 100 µM | [5] 48.4 µM | [6] > 100 µM | [7] 7 µM | [8] > 100 µM | [9] > 100 µM | [10] > 100 µM | [11] > 100 µM | [12] > 100 µM | [13] > 100 µM | [14] > 100 µM | [15] > 100 µM | [17] > 100 µM | [18] > 100 µM | [19] > 100 µM | [20] > 100 µM

CN(C)c1ccc(C(=NNC(=O)c2cc3ccccc3[nH]2)c2ccc(N(C)C)cc2)cc1
inactive: [1] 3.69 µM | [16] 2.73 µM | [17] 3.22 µM
active: [2] 0.0388 µM | [3] 0.193 µM | [4] 0.94 µM | [5] 0.0792 µM | [6] 0.293 µM | [7] < 0.033 µM | [9] 0.177 µM | [10] 0.811 µM | [11] 0.395 µM | [12] 1.1 µM | [13] 0.26 µM | [14] 0.326 µM | [15] 0.303 µM | [18] 0.305 µM | [19] 0.912 µM | [20] 0.359 µM

O=c1[nH]c2cc3cccnc3c(Cl)c2nc1CBr
inactive: [1] 26.5 µM | [2] 15.6 µM | [4] 20.3 µM | [5] 12.1 µM | [6] 8.97 µM | [7] 6.18 µM | [8] 23.1 µM | [9] 20 µM | [10] 13.9 µM | [11] 2.92 µM | [12] 7.4 µM | [13] 20.3 µM | [14] 5.79 µM | [15] 21.6 µM | [16] 19.3 µM | [17] 14.1 µM | [18] 13.8 µM | [19] 15 µM | [20] 13.1 µM

COc1cc(CNc2nc3ccccc3nc2C(=O)O)cc(OC)c1OC
inactive: [1] > 100 µM | [2] > 100 µM | [3] > 100 µM | [4] > 100 µM | [5] > 100 µM | [6] > 100 µM | [7] 99.1 µM | [8] > 100 µM | [9] > 100 µM | [10] > 100 µM | [11] > 100 µM | [12] > 100 µM | [13] > 100 µM | [14] > 100 µM | [15] > 100 µM | [16] > 100 µM | [17] 65 µM | [18] > 100 µM | [19] > 100 µM | [20] 42.1 µM

COc1ccc(NC(=O)CC(=O)n2nc(C)c(/N=N/c3cccc(C)c3)c2C)cc1
inactive: [1] > 100 µM | [2] > 100 µM | [3] > 100 µM | [4] > 100 µM | [6] > 100 µM | [7] 91.6 µM | [8] > 100 µM | [9] > 100 µM | [10] > 100 µM | [12] > 100 µM | [13] > 100 µM | [14] > 100 µM | [15] > 100 µM | [16] > 100 µM | [17] 69.8 µM | [18] > 100 µM | [19] > 100 µM | [20] > 100 µM

NS(=O)(=O)c1nnc(NS(=O)(=O)c2ccccc2C(=O)O)s1
inactive: [1] > 100 µM | [2] > 100 µM | [3] > 100 µM | [4] > 100 µM | [5] 40.7 µM | [6] 76.7 µM | [7] > 100 µM | [8] > 100 µM | [9] > 100 µM | [10] > 100 µM | [12] > 100 µM | [15] > 100 µM | [16] > 100 µM | [17] > 100 µM | [18] > 100 µM | [19] > 100 µM | [20] > 100 µM

COc1cc2c(cc1C)NC(=O)/C2=C/c1c(Cl)[nH]c2ccccc12
inactive: [1] 2.74 µM | [2] 1.63 µM | [3] 3.89 µM | [4] 7.87 µM | [5] 3.83 µM | [6] 4.05 µM | [7] 3.55 µM | [8] 3.88 µM | [9] 2.62 µM | [10] 4.48 µM | [11] 3.3 µM | [12] 10.6 µM | [13] 2.39 µM | [14] 3.56 µM | [15] 1.77 µM | [17] 11.2 µM | [18] 2.92 µM | [19] 10.1 µM | [20] 3.26 µM

— ChEMBL document CHEMBL1201862, “PubChem BioAssay data set” (2004)
